According to patent publication US10040749B2, “Opsin-binding ligands, compositions and methods of use” (priority 2011, dated 2018):

System: P23H opsin
Assay: Rhodopsin purification and regeneration (P23H cells treated with compound, regenerated with 9-cis-retinal, 480-500 nm absorbance)
Settings: 480-500 nm absorbance as fold increase over DMSO control; P23H cells; compound 10 μM

SMILES | Fold Increase Over Control
CC1=C(CNc2cccc(C(F)(F)F)c2)C(C)(C)CCC1.Cl [Compound 1, 3-(trifluoromethyl)-N-((2,6,6-trimethylcyclohex-1-enyl)methyl)aniline hydrochloride] | 1.8 fold
CC1=C(CNc2cccc(C)c2)C(C)(C)CCC1 [Compound 2, 3-methyl-N-((2,6,6-trimethylcyclohex-1-enyl)methyl)aniline] | 2.0 fold
CC1=C(CNc2cccc(Cl)c2)C(C)(C)CCC1 [Compound 5, 3-chloro-N-((2,6,6-trimethylcyclohex-1-enyl)methyl)aniline] | 1.8 fold
CC1=C(COc2cccc(C)c2)C(C)(C)CCC1 [Compound 6, 1-methyl-3-((2,6,6-trimethylcyclohex-1-enyl)methoxy)benzene] | 1.6 fold
CC1=C(COc2cccc(F)c2)C(C)(C)CCC1 [Compound 7, 1-fluoro-3-((2,6,6-trimethylcyclohex-1-enyl)methoxy)benzene] | 2.4 fold
CC1=C(COc2cccc(Cl)c2)C(C)(C)CCC1 [Compound 8, 1-chloro-3-((2,6,6-trimethylcyclohex-1-enyl)methoxy)benzene] | 2.2 fold
CC1=C(CNc2cccc(F)c2)C(C)(C)CCC1.Cl [Compound 10, 3-fluoro-N-((2,6,6-trimethylcyclohex-1-enyl)methyl)aniline hydrochloride] | 2.1 fold
CC1=C(CNc2ccc(F)c(C)c2)C(C)(C)CCC1.Cl [Compound 15, 4-fluoro-3-methyl-N-((2,6,6-trimethylcyclohex-1-enyl)methyl)aniline hydrochloride] | 1.6 fold
CC1=C(COc2ccc(F)c(F)c2)C(C)(C)CCC1 [Compound 29, 1,2-difluoro-4-((2,6,6-trimethylcyclohex-1-enyl)methoxy) benzene] | 2.4 fold
CC1=C(C(O)Cc2ccc(C)c(C)c2)C(C)(C)CCC1 (centres unmarked) [Compound 30, 2-(3,4-dimethylphenyl)-1-(2,6,6-trimethylcyclohex-1-enyl)ethanol] | 1.8 fold
CC1(C)CCCC=C1CNc1cccc(F)c1.Cl [Compound 32, N-((6,6-dimethylcyclohex-1-enyl)methyl)-3-fluoroaniline hydrochloride] | 1.7 fold
C[C@H]1CCCC(C)(C)[C@@H]1CNc1cccc(Cl)c1.Cl [Compound 37, 3-chloro-N-(((1R,6S)-2,2,6-trimethylcyclohexyl)methyl)aniline hydrochloride] | 2.4 fold
C[C@H]1CCCC(C)(C)[C@@H]1CNc1cccc(F)c1.Cl [Compound 38, 3-fluoro-N-(((1R,6S)-2,2,6-trimethylcyclohexyl)methyl)aniline hydrochloride] | 2.4 fold

Same assay, conditions: 480-500 nm absorbance as fold increase over DMSO control; P23H cells; compound 20 μM

SMILES | Fold Increase Over Control
C[C@H]1CCCC(C)(C)[C@@H]1CNc1cccc(C(F)(F)F)c1.Cl [Compound 12, 3-(trifluoromethyl)-N-(((1R,6S)-2,2,6-trimethylcyclohexyl)methyl)aniline hydrochloride] | 2.0 fold
CC1=C(CC(O)c2cccc(C(F)(F)F)c2)C(C)(C)CCC1 (centres unmarked) [Compound 20, 1-(3-(trifluoromethyl)phenyl)-2-(2,6,6-trimethylcyclohex-1-enyl)ethanol] | 2.4 fold
CC(=O)/C=C/C1=C(C)CCCC1(C)C [β-ionone, reference compound] | 2.4 fold

Same assay, conditions: FIG. 1; P23H opsin treated with 20 μM during mutant protein production, relative to vehicle (DMSO) alone

SMILES | regeneration of 500 nm absorbing pigment upon treatment with retinal
CC(=O)/C=C/C1=C(C)CCCC1(C)C [β-ionone, reference compound] | increase
